System: atrophic retinal lesions in Stargardt disease patients
Test: TEASE-1 growth rate of atrophic retinal lesions by fundus autofluorescence imaging
Format: in vivo, human
Set-up: relative slower growth rate of atrophic retinal lesions versus control / Percentage Slowing of Atrophic Retinal Lesion Growth Rate: concentration or dose not given beside the values
Description: The Tolerability and Effects of gildeuretinol acetate in Stargardt Disease (Clinical trial group 1, also known as TEASE-1) was a 24-month, multicenter, double-masked, placebo-controlled trial designed to evaluate the efficacy and safety of daily oral gildeuretinol acetate in slowing the growth of atrophic retinal lesions in Stargardt disease patients. The trial was conducted at multiple sites in the United States (NCT02402660).
Patients 12 years or older, clinically diagnosed with Stargardt disease, with at least one ABCA4 mutation, at least one eye presenting with well-demarcated areas of reduced fundus autofluorescence including retinal atrophic lesions, and with any visual acuity, were enrolled.
Patients were randomized to gildeuretinol acetate 14 mg capsules, gildeuretinol acetate 24 mg capsules, or placebo capsules, to be taken once daily for one year. After one year, 50% of randomly selected patients receiving placebo were crossed over in a 1:1 ratio to gildeuretinol acetate 14 mg capsules or gildeuretinol acetate 24 mg capsules for a second year.
Deidentified retinal images of patients not enrolled in the trial were included as a natural history cohort. This natural history cohort comprised patients diagnosed with Stargardt disease of any age, with two or more longitudinal fundus autofluorescence images taken at least four months apart over a maximum period of 2.5 years.
[…] retinal imaging comparing gildeuretinol acetate versus the untreated arm ([…]). Only well-delineated and homogeneous retinal atrophic lesions ≥0.2 mm^2 with a summed area ≥0.5 mm^2 were included in the primary analysis.
The primary endpoint analysis used a linear mixed-effect model (LMEM) with repeated measures, conferring a higher power to detect smaller effects. All observed data, including both eyes, were utilized. Treatment duration was computed as a continuous measure for each visit based on years since randomization. Adjustments for baseline retinal atrophy used the baseline atrophic retinal lesion size as a fixed effect in the LMEM. Additional fixed effects included treatment arm, treatment duration, and interaction between the treatment arm and treatment duration. Random effects included patient, eye, grader to adjust for correlation between eyes within a patient, graders' assessment of an eye, and observations of the same eye over time. A random effect slope term was added to the effect of treatment duration. Patients who crossed over to gildeuretinol acetate after year one were included in the untreated arm from baseline to year one, then in the gildeuretinol acetate arm from […] upon crossing over to gildeuretinol acetate. The full analysis set (FAS) comprised all randomized patients who received at least one dose of the study drug.
[…] All available data between 0 and 24 months was used to compute the slope of each segment. The primary efficacy endpoint was the slope of the second segment. No constraints were imposed on the Y-intercept. All growth rates were calculated on a per-year basis.
No imputations were made for missing data because the LMEM yields valid inferences under the assumption of a missing-at-random mechanism. The two-sided P-value of the primary efficacy endpoint was calculated using Kenward-Roger's method for handling denominator degrees of freedom and small samples. The goodness of fit of the linear mixed-effect model was provided as R-squared (R^2). Analyses were conducted in R (R Core Team, 2020). Prespecified, unadjusted sensitivity analyses of the primary efficacy endpoint included growth rates of untransformed areas of retinal atrophy and growth rates using a single-slope from baseline until the last available visit. Post-hoc unadjusted analyses were performed to evaluate the potential contribution of patient characteristics.

Structure (SMILES): [2H]C([2H])([2H])C(/C=C/C=C(C)/C=C/C1=C(C)CCCC1(C)C)=C\CO [Gildeuretinol, C20D3-retinol]
- Percentage Slowing of Atrophic Retinal Lesion Growth Rate (Crossover patients: 12 months placebo vs. 12 months treatment): 21%
- Percentage Slowing of Atrophic Retinal Lesion Growth Rate (Excluding 2 natural history cases <18 years old, 9 natural histories >60 years old): 21%
- Percentage Slowing of Atrophic Retinal Lesion Growth Rate (Excluding 3 randomized patients with one confirmed mutation): 20%
- Percentage Slowing of Atrophic Retinal Lesion Growth Rate (Excluding 13 natural history cases without any confirmed ABCA4 mutations and 6 natural histories with one confirmed mutation): 20%
- Percentage Slowing of Atrophic Retinal Lesion Growth Rate (Excluding 16 natural histories with only two follow up time points): 20%
- Percentage Slowing of Atrophic Retinal Lesion Growth Rate (Excluding natural history, randomized patients only, one slope (mm^2)): 30%
- Percentage Slowing of Atrophic Retinal Lesion Growth Rate (Excluding natural history, randomized patients only, two slopes (mm^2)): 23%
- Percentage Slowing of Atrophic Retinal Lesion Growth Rate (Using a single-slope from 0 to 24 months (mm^2)): 31%
- Percentage Slowing of Atrophic Retinal Lesion Growth Rate (Using untransformed areas of atrophic lesions (mm^2)): 28%

Reference: patent publication US20260256728A1, “TREATMENT FOR ASYMPTOMATIC STARGARDT DISEASE PATIENTS” (priority 2024, published 2026)
